Values belong to the compound of their own block, whether it stands above or below them. Residues, ends and D or L forms follow the SMILES beside them. No end group written: not given here.
Tests used:
[1] = tested on: p124-specific CD8 T cells; experiment: Cross-presentation of synthetic long peptides by monocyte-derived dendritic cells to p124-specific CD8 T cells; format: cell-based, human; settings: moDC loaded with 10 μM SLP; for cross-presentation of synthetic long peptide (V-variant epitope): FIG. 8; for T cell activation by cross-presented synthetic long peptide (wild type epitope): FIG. 7
Protocol: HLA-A*02:01 positive PBMCs were isolated from buffy-coats from consented donors (Sanquin bloodbank, Amsterdam), using a gradient ficoll layer. PBMCs were incubated with anti-CD14 magnetic beads for 20 min at 4° C. and the CD14 positive monocytes were isolated using magnetic separation columns (miltenyi). CD14+ monocyte were cultured in RPMI medium supplemented with 10% FCS, GM-CSF (800 units/ml), and IL-4 (500 units/ml) for 6 days to generate immature monocyte-derived dendritic cells. On day 6, the immature moDCs were incubated with synthetic long peptide (10 μM, Genscript) for 2h, followed by overnight incubation with LPS (20 ng/ml). Matured and loaded moDCs (30,000 cells) were washed and co-cultured with previously established tetramer positive T cells (50,000 cells) for 16 h. Direct presentation of synthetic long peptides was tested by continuous incubation with TIMP3-specific CD8 T cell bulk for 16 h in the absence of moDC. Cytokine release by T cells was then measured in supernatants by ELISA.
The synthetic long peptide (SLP) platform is highly immunogenic and successfully applied in therapeutic SLP vaccination for HPV-induced cancers (Kenter et al. 2009; van Poelgeest et al. 2016). Therefore, the inventors examined the efficiency of cross-presentation of long versions of the TIMP3-derived signal peptide SLGDWGAEA (SEQ ID NO: 2) in dendritic cells, using natural flanking amino acids extending the amino-terminus, the carboxy-terminus, or both ends (Table 3). Monocyte-derived dendritic cells (moDC) were incubated with these three SLPs (P124 long 1-3; SEQ ID NOs: 22-24), then matured, and used as targets for the p124-specific CD8 T cell culture to assess correct processing and HLA-A2 presentation of the minimal TEIPP epitope. Despite the fact that the c-terminus was an alanine, the TIMP3-derived signal peptide SLGDWGAEA (SEQ ID NO: 2) was cross-presented by DCs from a longer peptide to p124-specific CD8 T cells (FIG. 7).
Therefore, the cross-presentation of the V-variant was evaluated as synthetic long peptide extended with natural flanking amino acids (Table 3). After uptake and processing of the five different variants (P124 long V1-3, V1-4, V1-6, V2 and V3; SEQ ID NOs: 25, 110, 111, 26 and 27), moDCs were co-cultured with the p124-specific T cell cultures and cytokine production was measured (FIG. 8). […] The lack of recognition of DCs not loaded with peptide reiterates that moDCs, despite the high expression of TIMP3 (FIG. 4), are not recognized.

TAP-negative tumor cells = experiment: Preferential recognition of TAP-negative over TAP-positive tumor cells by peptide-stimulated T cell cultures (TEIPP screen); format: cell-based, human; settings: TAP-negative vs TAP-positive tumor cells
Protocol: TCR-transduced or bulk-cultured TEIPP T cells were tested for their ability to selectively recognize the indicated TEIPP epitope presented on TAP impaired tumors by co-culturing them for 18 hours with wild-type (wt), TAP-KO and/or TAP/TIMP3-KO tumor cells at a 5-to-1 target-to-T cell ratio, after which supernatants were harvested and analyzed for cytokine production by GM-CSF, CCL4 and/or IFNg ELISA. Unstimulated and peptide-stimulated T cells were used as negative and positive controls. For some experiments, also endogenous TEIPP antigen-expressing healthy cells such as Epstein-Barr virus (EBV) transformed B-cells, monocytes or monocyte-derived dendritic cells were included as additional controls. Test were performed in triplo in 96 well round bottom plates at 1:1 target to effector ratio.
36 peptides (designated 101 to 136) were selected for their capacity to activate CD8+ T cells present in peripheral blood mononuclear cells (PBMC) of maximal 5 healthy donors, following the protocol described earlier (Marnjt et al., 2018). […] After an in vitro expansion and enrichment of the responding T cell cultures, 18 of the 21 cases could be tested for their capacity to preferentially recognize TAP-negative tumor cells over TAP-positive tumor cells. […] These cultures were stimulated with peptide 105, 113, or 124. […]

[2] = tested on: SLGDWGAEA-specific T cells; experiment: Interferon-gamma production of SLGDWGAEA-specific T cells stimulated with variant peptides pulsed on HLA-A*0201 positive EBV transformed B-cells; format: cell-based, human; settings: for Recognition (IC50): concentration of peptide for half maximal interferon-gamma production of SLGDWGAEA-specific T cells; for response of peptide 124-specific CD8+ T cell culture to variant peptide: short minimal peptides exogenously pulsed on HLA-A*0201 positive EBV transformed B-cells
Text: The inventors investigated if exchanges into another amino acids would result in a more efficiently processed epitope. First, they examined whether these substitutions would interfere with T cell receptor interaction. The inventors exogenously pulsed the short minimal peptides of Table 4 with the C-terminal valine (V), leucine (L), isoleucine (I), or methionine (M) on HLA-A*0201 positive EBV transformed B-cells and measured the activation of the peptide 124-specific CD8+ T cell culture.

[3] = tested on: CD8+ T cells present in peripheral blood mononuclear cells (PBMC); experiment: In vitro expansion of peptide multimer-positive CD8+ T cells from PBMC of healthy donors; format: cell-based, human
Protocol: Buffy coats from healthy donors were obtained from Sanquin (Sanquin blood facility). Informed consent was given in writing by all participants. PBMCs were isolated using a ficoll gradient (density 1.077 g/ml). Approximately 500×10^6 PBMCs were incubated with PE-labeled pHLA-A*02:01 tetramers (Flex-T™ HLA-A*02:01 Monomer UVX van Biolegend) for 30 min at RT. Anti-PE magnetic beads (MACS) were used to pull out pHLA-A*02:01 tetramer-positive cells over a MACS LS column as instructed by the manufacturer (Miltenyi Biotech). T cells were cultured in complete IMDM containing 10% human serum (Sanquin blood facility) and 100 U/ml IL-2 (Proleukine; Novartis). Bulk T cells were stimulated every 2 weeks with a mixture of T cells (106), 1 μg/ml synthetic peptide (SLGDWGAEA (SEQ ID NO: 2) (TIMP3)), irradiated PBMCs (10 cells, 50 Gray), and EBV-JY (10W cells, 75 Gray) in complete T cell culture medium supplemented with 100 U/ml IL-2 in 24-well plates (Costar). Culture medium was replenished every 2-3 d with fresh complete T cell medium.
36 peptides (designated 101 to 136) were selected for their capacity to activate CD8+ T cells present in peripheral blood mononuclear cells (PBMC) of maximal 5 healthy donors, following the protocol described earlier (Marnjt et al., 2018). […]

[4] = tested on: p124-specific CD8 T cells; experiment: Stimulation of p124-specific T cells by exogenous short p124 peptide; format: cell-based, human; settings: FIG. 7
Protocol: The peptide 124-specific T-cell culture from donor 4409 was stimulated with HLA-A*0201 matched monocyte-derived dendritic cells (MoDCs) from three different donors (indicated by MoDCs 0559, MoDC 4553 and MoDC 7401), which were loaded with (10 uM for 20-24h) the indicated synthetic long peptides (SLP) (“p124 long 1” (SEQ ID NO: 22), (“p124 long 2” (SEQ ID NO: 23), (“p124 long 3” (SEQ ID NO: 24)) or with no peptide as background control. The T cell culture incubated with 25 ug/ml the p124-peptide SLGDWGAEA served as positive control for reactivity (indicated by “T cells+p124”). The amount of interferon-gamma (IFNy) or GM-CSF produced is shown on the y-axis in pg/ml.
The synthetic long peptide (SLP) platform is highly immunogenic and successfully applied in therapeutic SLP vaccination for HPV-induced cancers (Kenter et al. 2009; van Poelgeest et al. 2016). Therefore, the inventors examined the efficiency of cross-presentation of long versions of the TIMP3-derived signal peptide SLGDWGAEA (SEQ ID NO: 2) in dendritic cells, using natural flanking amino acids extending the amino-terminus, the carboxy-terminus, or both ends (Table 3). […]

[5] = tested on: SLGDWGAEA-specific T cell cultures; experiment: Tetramer staining of peptide 124-specific T cell cultures; format: binding, human; settings: three T cell cultures, donors 2028, 4409, 2752
Text: T cell cultures of donors 2028, 4409 and 2752 were stimulated with the peptide SLGDWGAEA (SEQ ID NO:2) and analyzed via flow cytometry for the percentage of CD8+ T cells and the percentage therein of CD8+ T cells that stained positive with the HLA-A*02:01 tetramer presenting peptide SLGDWGAEA. All three SLGDWGAEA-specific T cell cultures comprise more than 97% CD8+ T cells that stained for more than 99% positive with SLGDVGAEA-loaded HLA-A*02:01 tetramers (indicated by HLA-A*02:01: SLGDWGAEA™ in FIG. 1). These SLGDWGAEA-specific T cells were used in subsequent experiments described below. In the present application and figures, peptide SLGDWGAEA is also referred to as ‘peptide 124’ or ‘p124’.
Buffy coats from healthy donors were obtained from Sanquin (Sanquin blood facility). Informed consent was given in writing by all participants. PBMCs were isolated using a ficoll gradient (density 1.077 g/ml). Approximately 500×10^6 PBMCs were incubated with PE-labeled pHLA-A*02:01 tetramers (Flex-T™ HLA-A*02:01 Monomer UVX van Biolegend) for 30 min at RT. Anti-PE magnetic beads (MACS) were used to pull out pHLA-A*02:01 tetramer-positive cells over a MACS LS column as instructed by the manufacturer (Miltenyi Biotech). T cells were cultured in complete IMDM containing 10% human serum (Sanquin blood facility) and 100 U/ml IL-2 (Proleukine; Novartis). […]

Compound: LGLIVLLGSWSLGDWGAEV [P124 long V1-4, LGLIVLLGSWSLGDWGAEV]
- cross-presentation of synthetic long peptide (V-variant epitope) [1]: enhanced T cell stimulation and more efficient cross-presentation

Compound: FLGPWPAAS [peptide 105, FLGPWPAAS, reference compound]
- recognition pattern of the stimulated T cell culture (classified as TEIPP) (TAP-negative tumor cells): consistent recognition pattern

Compound: MTPWLGLIVLLGSWSLGDWGAEA [P124 long 1]
- T cell activation by cross-presented synthetic long peptide (wild type epitope) [1]: the T cells were activated

Compound: CC[C@H](C)[C@H](N)C(=O)N[C@H](C(=O)N[C@@H](CC(C)C)C(=O)N[C@@H](CC(C)C)C(=O)NCC(=O)N[C@@H](CO)C(=O)N[C@@H](Cc1c[nH]c2ccccc12)C(=O)N[C@@H](CO)C(=O)N[C@@H](CC(C)C)C(=O)NCC(=O)N[C@@H](CC(=O)O)C(=O)N[C@@H](Cc1c[nH]c2ccccc12)C(=O)NCC(=O)N[C@@H](C)C(=O)N[C@@H](CCC(=O)O)C(=O)N[C@@H](C)C(=O)N[C@@H](CS)C(=O)N[C@H](C(=O)N[C@@H](CS)C(=O)N[C@@H](CO)C(=O)N1CCC[C@H]1C(=O)N[C@@H](CO)C(=O)N[C@@H](Cc1c[nH]cn1)C(=O)O)[C@@H](C)O)C(C)C [P124 long 2] (H-IVLLGSWSLGDWGAEACTCSPSH-OH)
- T cell activation by cross-presented synthetic long peptide (wild type epitope) [1]: the T cells were activated

- Recognition (IC50) ([2]; Table 1): 0.092525 µg/mL
- Recognition (IC50) ([2]; Table 4): 0.092525 µg/mL
Compound: SLGDWGAEA [SLGDWGAEA]
- recognition pattern of the stimulated T cell culture (classified as TEIPP) (TAP-negative tumor cells): consistent recognition pattern
- donors with outgrowth of p124-specific T cells [3]: 10 donors
- T cell stimulation by exogenous pulsing of short peptide [4]: stimulated the T cells
- CD8+ T cells stained positive with SLGDWGAEA-loaded HLA-A*02:01 tetramers [5]: more than 99%
- CD8+ T cells stained positive with SLGDWGAEA-loaded HLA-A*02:01 tetramers ([5]; listed as peptide 124): > 99%

- Recognition (IC50) ([2]; Table 1): 0.284929 µg/mL
- Recognition (IC50) ([2]; Table 4): 0.284929 µg/mL
Compound: SLGDWGAEI [SLGDWGAEI]

- Recognition (IC50) ([2]; Table 1): 0.001471 µg/mL
- Recognition (IC50) ([2]; Table 4): 0.001471 µg/mL
Compound: SLGDWGAEV [SLGDWGAEV]
- improvement of the stimulation of p124-specific T cells vs. c-terminal alanine peptide ([2]; specifically at the lower peptide concentration range): 61 fold

Compound: CC[C@H](C)[C@H](N)C(=O)N[C@H](C(=O)N[C@@H](CC(C)C)C(=O)N[C@@H](CC(C)C)C(=O)NCC(=O)N[C@@H](CO)C(=O)N[C@@H](Cc1c[nH]c2ccccc12)C(=O)N[C@@H](CO)C(=O)N[C@@H](CC(C)C)C(=O)NCC(=O)N[C@@H](CC(=O)O)C(=O)N[C@@H](Cc1c[nH]c2ccccc12)C(=O)NCC(=O)N[C@@H](C)C(=O)N[C@@H](CCC(=O)O)C(=O)N[C@H](C(=O)N[C@@H](CS)C(=O)N[C@H](C(=O)N[C@@H](CS)C(=O)N[C@@H](CO)C(=O)N1CCC[C@H]1C(=O)N[C@@H](CO)C(=O)N[C@@H](Cc1c[nH]cn1)C(=O)O)[C@@H](C)O)C(C)C)C(C)C [P124 long V2] (H-IVLLGSWSLGDWGAEVCTCSPSH-OH)
- cross-presentation of synthetic long peptide (V-variant epitope) [1]: cross-presentation was lost

Compound: SLGDWGAEL [SLGDWGAEL]
- response of peptide 124-specific CD8+ T cell culture to variant peptide [2]: No response was observed

Compound: SLGDWGAEM [SLGDWGAEM]
- response of peptide 124-specific CD8+ T cell culture to variant peptide [2]: No response was observed

Compound: CC(C)C[C@H](NC(=O)[C@@H](N)CO)C(=O)NCC(=O)N[C@@H](CC(=O)O)C(=O)N[C@@H](Cc1c[nH]c2ccccc12)C(=O)NCC(=O)N[C@@H](C)C(=O)N[C@@H](CCC(=O)O)C(=O)N[C@@H](C)C(=O)N[C@@H](CS)C(=O)N[C@H](C(=O)N[C@@H](CS)C(=O)N[C@@H](CO)C(=O)N1CCC[C@H]1C(=O)N[C@@H](CO)C(=O)N[C@@H](Cc1c[nH]cn1)C(=O)N1CCC[C@H]1C(=O)N[C@@H](CCC(N)=O)C(=O)N[C@@H](CC(=O)O)C(=O)N[C@@H](C)C(=O)N[C@@H](Cc1ccccc1)C(=O)N[C@@H](CS)C(=O)N[C@@H](CC(N)=O)C(=O)O)[C@@H](C)O [P124 long 3] (H-SLGDWGAEACTCSPSHPQDAFCN-OH)
- T cell activation by cross-presented synthetic long peptide (wild type epitope) [1]: No recognition was observed

Compound: LIVLLGSWSLGDWGAEV [P124 long V1-6, LIVLLGSWSLGDWGAEV]
- cross-presentation of synthetic long peptide (V-variant epitope) [1]: enhanced T cell stimulation and more efficient cross-presentation

Compound: WLGLIVLLGSWSLGDWGAEV [P124 long V1-3]
- cross-presentation of synthetic long peptide (V-variant epitope) [1]: less optimal

— US20260306599A1, “TIMP3-DERIVED TEIPP NEOANTIGENS AND USES THEREOF” (priority 2023, published 2026)
